From the supplement of paper PMC10307832

What was measured:
Experiment in all cases: relative viability (nuclei count vs DMSO), 5 days (fraction); higher = more cells survive
AZD8055 + Phenformin = compound: COc1ccc(-c2ccc3c(N4CCOC[C@@H]4C)nc(N4CCOC[C@@H]4C)nc3n2)cc1CO [AZD8055] + N=C(N)NC(=N)NCCc1ccccc1 [Phenformin] (partner 250 µM)
In short: (§1)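 Dosing by pin tool came one day after lung cancer cell lines were seeded in 1536-well plates, using either one drug or a fixed anchor-drug dose plus five library-drug doses (not always all listed) in √10 steps. After 5 days, nuclei were counted on 4× images. Relative viability is treated-well nuclei count divided by vehicle-well nuclei count, and values are medians of duplicate plates.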

AZD8055 + Olaparib = compound: COc1ccc(-c2ccc3c(N4CCOC[C@@H]4C)nc(N4CCOC[C@@H]4C)nc3n2)cc1CO [AZD8055] + O=C(c1cc(Cc2n[nH]c(=O)c3ccccc23)ccc1F)N1CCN(C(=O)C2CC2)CC1 [Olaparib] (partner 8 µM)
In short: as §1

AZD8055 + Trametinib = compound: COc1ccc(-c2ccc3c(N4CCOC[C@@H]4C)nc(N4CCOC[C@@H]4C)nc3n2)cc1CO [AZD8055] + CC(=O)Nc1cccc(-n2c(=O)n(C3CC3)c(=O)c3c(Nc4ccc(I)cc4F)n(C)c(=O)c(C)c32)c1 [Trametinib] (partner 0.02 µM)
In short: as §1

AZD8055 = compound: COc1ccc(-c2ccc3c(N4CCOC[C@@H]4C)nc(N4CCOC[C@@H]4C)nc3n2)cc1CO [AZD8055]
In short: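 For viability, nuclei in each treated well were divided by nuclei in vehicle wells and the median across plates was taken. Lung cancer cell lines in 1536-well plates were pinned with five library-drug doses (not always all listed) spaced by √10, cultured 5 days without medium change, and imaged at 4× after Hoechst staining, with plates passing only at control CV below 25% and at least one doubling.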

| Cell Line | relative viability (AZD8055 + Phenformin; first compound 0.01 µM) | relative viability (AZD8055 + Phenformin; first compound 0.03162 µM) | relative viability (AZD8055 + Phenformin; first compound 0.1 µM) | relative viability (AZD8055 + Phenformin; first compound 0.3162 µM) | relative viability (AZD8055 + Phenformin; first compound 1 µM) | relative viability (AZD8055 + Olaparib; first compound 0.01 µM) | relative viability (AZD8055 + Olaparib; first compound 0.03162 µM) | relative viability (AZD8055 + Olaparib; first compound 0.1 µM) | relative viability (AZD8055 + Olaparib; first compound 0.3162 µM) | relative viability (AZD8055 + Olaparib; first compound 1 µM) | relative viability (AZD8055 + Trametinib; first compound 0.01 µM) | relative viability (AZD8055 + Trametinib; first compound 0.03162 µM) | relative viability (AZD8055 + Trametinib; first compound 0.1 µM) | relative viability (AZD8055 + Trametinib; first compound 0.3162 µM) | relative viability (AZD8055 + Trametinib; first compound 1 µM) | relative viability (AZD8055; 0.01 µM) | relative viability (AZD8055; 0.03162 µM) | relative viability (AZD8055; 0.1 µM) | relative viability (AZD8055; 0.3162 µM) | relative viability (AZD8055; 1 µM) |
| --- | --- | --- | --- | --- | --- | --- | --- | --- | --- | --- | --- | --- | --- | --- | --- | --- | --- | --- | --- | --- |
| HCC-15 | 0.547 | 0.459 | 0.425 | 0.286 | 0.232 | 0.776 | 0.697 | 0.643 | 0.47 | 0.35 | 0.373 | 0.337 | 0.271 | 0.167 | 0.186 | 1.09 | 1.03 | 0.883 | 0.53 | 0.351 |
| NCI-H2405 | 0.399 | 0.368 | 0.341 | 0.302 | 0.275 | 0.904 | 0.851 | 0.772 | 0.359 | 0.35 | 0.555 | 0.494 | 0.43 | 0.282 | 0.27 | 0.999 | 1 | 0.797 | 0.406 | 0.407 |
| LXF-289 | 0.539 | 0.534 | 0.508 | 0.458 | 0.385 | 1.07 | 1.01 | 0.928 | 0.641 | 0.57 | 0.75 | 0.606 | 0.627 | 0.392 | 0.333 | 1.07 | 1.05 | 1.01 | 0.909 | 0.768 |
| CAL-12T | 0.567 | 0.626 | 0.479 | 0.23 | 0.2 | 0.679 | 0.654 | 0.491 | 0.277 | 0.226 | 0.33 | 0.308 | 0.227 | 0.186 | 0.196 | 1.06 | 0.995 | 0.7 | 0.322 | 0.274 |
| COR-L23 | 0.485 | 0.373 | 0.341 | 0.213 | 0.157 | 0.408 | 0.42 | 0.277 | 0.143 | 0.141 | 0.512 | 0.528 | 0.334 | 0.127 | 0.157 | 1.35 | 0.921 | 0.862 | 0.28 | 0.207 |
| NCI-H1755 | 0.609 | 0.594 | 0.541 | 0.463 | 0.474 | 0.767 | 0.765 | 0.677 | 0.446 | 0.378 | 0.729 | 0.673 | 0.615 | 0.404 | 0.385 | 1.02 | 0.841 | 0.825 | 0.537 | 0.569 |
| NCI-H1437 | 0.315 | 0.299 | 0.301 | 0.206 | 0.203 | 0.696 | 0.658 | 0.601 | 0.457 | 0.311 | 0.524 | 0.527 | 0.381 | 0.247 | 0.207 | 1.05 | 1.02 | 0.895 | 0.448 | 0.318 |
| NCI-H2085 | 0.739 | 0.67 | 0.417 | 0.34 | 0.314 | 0.858 | 0.822 | 0.553 | 0.387 | 0.354 | 0.535 | 0.326 | 0.282 | 0.246 | 0.295 | 1 | 0.987 | 0.723 | 0.43 | 0.42 |
